“Also recorded” adds a separate entry of the source.
Columns and labels:
[1] = tested on: gastric epithelium and submucosa; experiment: Haematoxylin-eosin staining of gastric tissue sections; assay type: in vivo; settings: 50 mg/kg body weight, indomethacin ulcerated mice
Description: To understand the fine information about the physical condition (the level of damage and/or intactness) of cells tissues under observation, different tissue samples were fixed in 10% formalin and embedded in paraffin. Tissue sections were deparaffinized with xylene and rehydrated with descending alcohol series. The sections were cut using microtome, and stained with hematoxylin and eosin, or subjected to Terminal deoxynucleotidyl transferase-mediated dUTP Nick End Labeling (TUNEL) assay by using a in situ apoptosis detection kit. Fixation, permeabilization, and staining were carried out in exact parallel to ensure comparative significance among normal, ulcerated and compound 5 treated groups. […] Images at 10× and 40× magnification were captured using Camedia software (E-20P 5.0 Megapixel) and processed under Adobe Photoshop version 7.0 (FIG. 1B).
Tissue sections were stained with hematoxylin and eosin stain. Fixation, permeabilization, and staining were carried out in parallel in normal, ulcerated and compound 5 treated groups to ensure comparative significance among different treatment. TUNEL assay is used for detection and quantification of apoptosis in gastric tissues, based on labelling of DNA strand breaks. Terminal deoxynucleotidyl transferase-mediated dUTP Nick End Labeling (TUNEL) assay was performed by using an in situ apoptosis detection kit. […]

[2] = Pharmacokinetic profiling in rat; assay type: in vivo, Sprague Dawley rats; settings: single dose 250 mg/kg oral gavage, male rats, plasma
Method: Male sprague dawley rats (n=6) received a single dose of 250 mg/kg body weight compound 5 by oral gavage. Compound 5 levels in plasma were determined by HPLC. Values represent mean plasma levels.
Column chromatography was carried out using silica gel 100-200 mesh. Analytical thin-layer chromatography (TLC) was performed with silica gel 60 F254 aluminium sheets. ^1H NMR spectra were recorded on a Bruker DPX 300 MHz or Bruker DRX 600 MHz NMR instrument at ambient temperature in CDCl3, CD3OD or DMSO-d6. ^13C NMR spectra were recorded at 75 MHz or 150 MHz at ambient temperature. The chemical shifts were recorded in parts per million (ppm) with TMS as internal reference. All ^13C NMR spectra were recorded with complete proton decoupling. Mass spectral data refer to EIMS or ESIMS and are recorded in m/z unit. DI-EIMS were recorded on a GC-MS Shimadzu-QP5050A and ESIMS were done on a Waters® Micromass® Q-TOF Mass Spectrometer. Melting points are recorded on a SPAC-N SERVICE (India) melting point apparatus (Laboratory device) in open capillaries and are uncorrected. Elemental analyses were performed by Perkin-Elmer CHN/O analyzer model 2400, series II. HPLC analysis of plasma samples were performed on a Shimadzu Model SPD-M10Avp equipped with LC-10ATvp HPLC pump, Hamamatsu Deuterium Lamp type L6585 photodiode array detector. Chromatography was achieved using a Phenomenex Luna 5 μm C18 (2) 100 Å LC Column (150×4.6 mm I. D.) with Guard Cartridges C18 (4×3.0 mm). The mobile phase consisted of 15% water in acetonitrile, and solutes were eluted using a flow rate 1.0 mL/min. The column was re-equilibrated at initial conditions for 5 min before the next analysis. Analytical HPLC conditions were as follows: column, Pheomenex C18 (250 mm×4.6 mm, particle size 5 μm) with solvent combination of 0.5-1.0% TFA in water:acetonitrile in various ratios at a flow rate of 0.5-1.0 mL/min, detection at 254 nm. Purity of tested compounds was established by analytical reverse phase HPLC, confirming a purity of at least 95%. Unless otherwise stated, reagents were procured from commercial sources and were used without further purification.
In order to assess the time course of action and disposition of compound 5 in vivo, pharmacokinetic studies in Sprague Dawley rats were conducted. The curve was linear in the range investigated and the extraction efficiency was greater than 70%.

COc1cccc2[nH]cc(-c3cc(-c4ccccc4)oc3-c3ccccc3)c12 [compound 5, 4-methoxy-3-(2,5-diphenylfuran-3-yl)-1H-indole]
gastric injury, haematoxylin-eosin staining [1]: minimum injury and intact epithelial layer; also recorded: prevents indomethacin induced gastric injury | Cmax ([2]; Sprague-Dawley, rat): 104 µg/mL | Tmax ([2]; Sprague-Dawley, rat): ~6 h | half-life ([2]; Sprague-Dawley, rat): 7 h | area under the curve [2]: 1273.8 µg·h/mL
